Patent US6566371B2, “Intraperitoneal administration of adenosine for the treatment of prevention of gastrointestinal of systemic diseases” (University of Pittsburgh, priority 2000, dated 2003)
Where two headings read alike, the source gives them in different places. Blank lines part the entries; values can stand above or below the compound they belong to.

Columns and labels:
[1] = Microdialysis of mesenteric vein and aortic arch during continuous peritoneal lavage with adenosine or AMP (Example 2)
Protocol: (§1) In all the examples adult male Sprague-Dawley rats were purchased from Charles River Laboratories (Wilmington, Mass.) and maintained in the University of Pittsburgh Animal Facility (Pittsburgh, Pa.). Rats were provided free access to Prolab Isopro RMH 3000 rodent diet (PMI Nutrition Intl., Richmond, Ind.) and tap water. Light cycle, relative humidity and room temperature were 7:00 AM to 7:00 PM, 55% and 22° C., respectively. Animals weighed 357±11 (mean±SEM) grams at the time of study.
(§2) Rats (n=5) were anesthetized and body temperature monitored and maintained as described for Example 1. The trachea was cannulated with PE-240 and a PE-50 catheter was inserted into the right jugular vein and an intravenous infusion of 0.9% saline was initiated at 50 μl/min. A femoral artery catheter (PE-50) was inserted and was connected to a digital blood pressure analyzer for continuous measurement of MABP and heart rate. Next, microdialysis probes (CMA/20 microdialysis probe 4 mm, Bioanalytical Systems, Inc., West Lafayette, Ind.) were inserted into the aortic arch (via the left carotid artery) and mesenteric vein. Microdialysis probes were perfused with 0.9% saline at 2 μl/min, and the dialysate exiting the probes was collected in a freezing apparatus. As in Example 1, a basin was constructed from the abdominal wall to create a bowl containing the viscera. However, unlike Example 1, instead of intermittent lavage with fresh solutions, the abdominal basin was continuously perfused with Tyrode's solution (5 ml/min) (Mi, Z., et al., J. Pharmacol. Exp. Ther. 287:926 (1998), the disclosure of which is incorporated herein by reference) that was maintained at 37° C. by a heated water bath. Thus, the viscera were submerged completely in Tyrode's solution that was constantly being replaced. After a 20-minute stabilization period, dialysate from the microdialysis probes was collected for 20 minutes. Next, the Tyrode's solution perfusing the peritoneal cavity was switched to prewarmed Tyrode's containing 10^−5 M adenosine (Sigma). After 10 minutes, the dialysate was collected for another 20 minutes. This procedure was repeated two more times as the concentration of adenosine was increased to 10^−4 M and finally to 10^−3 M. To determine whether AMP would behave as a “prodrug” for the delivery of adenosine, after a 20 minute washout period, the entire protocol was repeated with AMP (10^−5 M, 10^−4 M and 10^−3 M) (Sigma).
(§3) Statistical Analysis: Data were analyzed in this example by repeated measures 1-factor analysis of variance. […] Statistical analyses were conducted with NCSS software (Version 6.0; Kaysville, Utah), and the criterion of significance was p<0.05.
(§4) Sample Analysis: Levels of adenosine and its metabolites, inosine, hypoxanthine and xanthine, in the dialysate samples in this example were measured using an Isco (Lincoln, Nebr.) high-pressure liquid chromatographic system (pump model 2350, gradient programmer model 2360, 4.6×250-mm C18 column) with UV detection as described by Mi, Z., et al., J. Pharmacol. Exp. Ther. 273:728 (1995). The chromatography data system was JCL 6000 for Windows (Jones Chromatography LTD., Lakewood, Colo.).

[2] = tested on: rats subjected to hemorrhagic shock; assay: Hemorrhagic shock and resuscitation with continuous peritoneal lavage (Example 3); type: in vivo, Sprague-Dawley rats
Protocol: The methods of the present invention are illustrated in more detail below. […] In a second study, microdialysis probes were placed in the mesenteric vein and aortic arch of rats, and the peritoneal cavity was continuously ravaged with adenosine or AMP solutions. In a third study, rats were subjected to hemorrhagic shock (2.75 ml of blood removed per 100 grams of body weight over a 15 minute period) for two hours, followed by volume resuscitation for one hour and observation for 72 hours. Rats received peritoneal lavage with adenosine or vehicle (0.9% saline) beginning 20 minutes after blood withdrawal and continuing through the one hour resuscitation period.
Hemorrhagic shock was induced by removing 2.75 ml of blood per 100 grams of body weight over a 15 minute period. Two hours after blood withdrawal, the animals were resuscitated by reinfusing the withdrawn blood and restoring and maintaining a normal blood pressure for one hour by infusing Ringer's solution (Baxter, Deerfield, Ill.) as needed. Beginning 20 minutes after blood withdrawal and continuing for one hour after reinfusion of the withdrawn blood, rats received either continuous peritoneal lavage with adenosine (10^−4 M) or 0.90% saline.

[3] = tested on: anesthetized rats with mesenteric vasoconstriction induced by angiotensin II plus methoxamine; assay: Intraperitoneal lavage with adenosine during intramesenteric artery infusion of angiotensin II plus methoxamine (Example 1); type: in vivo, Sprague-Dawley rats
[4] = rat, in vivo
Protocol: as §1, §2, §3, §4

[5] = continuous peritoneal lavage with 10^-3 M
[6] = continuous peritoneal lavage with adenosine 10^-4 M
[7] = Group 2, period 7, 10^-3 M adenosine in peritoneal lavage fluid

- purine levels in the aorta [1, 5]: not in the aorta
- MABP ([1]; during 10^-3 M in continuous peritoneal lavage, basal 113±5 (adenosine), 112±4 (AMP), not significantly affected): 117±7 mm Hg
SMILES: Nc1ncnc2c1ncn2[C@@H]1O[C@H](COP(=O)(O)O)[C@@H](O)[C@H]1O [AMP, adenosine-5′-monophosphate]
- purine levels in the mesenteric vein [1, 5]: increased purine levels in the mesenteric vein
- heart rate ([1]; during 10^-3 M in continuous peritoneal lavage, basal 351±15 (adenosine), 357±17 (AMP), not significantly affected): 366±22 beats/min

SMILES: Nc1ncnc2c1ncn2[C@@H]1O[C@H](CO)[C@@H](O)[C@H]1O [adenosine]
- arterial pH vs vehicle-treated group [2, 6]: significantly (p<0.05) higher
- blood urea nitrogen vs vehicle-treated group [2, 6]: significantly (p<0.05) lower
- plasma level of lactate vs vehicle-treated group [2, 6]: significantly (p<0.05) lower
- plasma level of potassium vs vehicle-treated group [2, 6]: significantly (p<0.05) lower
- survival to 72 hours ([2]; continuous peritoneal lavage with adenosine 10^-4 M, vehicle 4 of 10, p<0.05): 9 of 10
- MABP and heart rate vs vehicle-treated group ([2]; during hemorrhagic shock and resuscitation, adenosine 10^-4 M lavage): similar
- heart rate ([3]; Group 2, increasing adenosine 10^-7 to 10^-3 M in lavage): not significantly different among the seven experimental periods
- MBF compared with period 1 (no infusion, no adenosine) [3, 7]: not significantly different than the MBF during period 1
- MBF compared with period 2 (vasoconstrictors, no adenosine) [3, 7]: significantly greater than the MBF during period 2
- mesenteric blood flow (MBF) ([3]; Group 2, periods 3-6, adenosine 10^-7 M to 10^-4 M in peritoneal lavage fluid, intermittent lavage): remained significantly depressed
- heart rate (bradycardia) ([3]; Group 3, 10^-3 M adenosine in peritoneal lavage fluid): did not cause bradycardia
- MABP ([3]; Group 3, 10^-3 M adenosine, period 4 and period 5): very slight and transient increase
- MBF compared with period 1 ([3]; Group 3, by period 7, fixed 10^-3 M adenosine in peritoneal lavage fluid): no longer significantly different compared with experimental period 1
- MBF compared with period 2 ([3]; Group 3, periods 3-7, fixed 10^-3 M adenosine in peritoneal lavage fluid): significantly greater than MBF during period 2
- mesenteric blood flow (summary) ([3]; peritoneal lavage with adenosine, p<0.05): normalized mesenteric blood flow
- adenosine level in dialysate exiting mesenteric vein microdialysis catheter ([4]; male, Sprague-Dawley): 2.17 ± 0.60 µM
- hypoxanthine level in dialysate exiting mesenteric vein microdialysis catheter ([4]; male, Sprague-Dawley): 0.18 ± 0.04 µM
- inosine level in dialysate exiting mesenteric vein microdialysis catheter ([4]; male, Sprague-Dawley): 1.03 ± 0.32 µM
- xanthine level in dialysate exiting mesenteric vein microdialysis catheter ([4]; male, Sprague-Dawley): 0.26 ± 0.06 µM
- MABP [4]: 108±4 mm Hg
- heart rate [4]: 362±14 beats/min
- levels of adenosine, inosine, hypoxanthine or xanthine in the aorta (dialysate) [4]: did not significantly alter
- levels of adenosine, inosine, hypoxanthine or xanthine in the mesenteric vein (dialysate) [4]: did not significantly alter
